Patent US5298494A, “Monosaccharides having anti-proliferation and anti-inflammatory activity, compositions and uses thereof” (Greenwich Pharmaceuticals Incorporated, priority 1993, dated 1994)

Tested on: LTB4 production by BUD-8 skin cell fibroblasts
Assay: LTB4 production by BUD-8 skin cell fibroblasts (radioimmunoassay)
Type: cell-based, human
Description: The effect of the compound of the present invention on the proliferative capacity of human BUD-8 skin fibroblasts was measured with the use of a ^3 H-thymidine incorporation assay using culture conditions which were similar to those used for a Con-A blastogenesis assay, described previously. Cultured skin cells were detached from the surface of tissue culture flasks mechanically with a Teflon scraper. The cells were washed, resuspended in incubation medium and the viabilities were determined. These cells were then plated in triplicate at a density of 2×10^3 cells/0.1 ml/microtiter well for the proliferation assay and a density of 1×10^4 cells/0.1 ml/microtiter well for the assays to quantitate PGE2 and LTB4. To these cells was added incubation medium containing indomethacin to inhibit prostaglandin production, or nordihydroguaiaretic acid (NDGA) to inhibit leukotriene production (positive controls).
After 18 hours of culture, samples of the BUD-8 skin cell supernatants were collected from one set of microtiter plates and frozen until assayed for PGE2 or for LTB4 content using the radioimmunoassays described below.
Levels of LTB4 in aliquots of BUD-8 skin cell cultures supernatants were quantitated by radioimmunoassay (New England Nuclear). Briefly, into each polyproplyene tube were mixed 0.1 ml anti-LTB4, 0.1. ml ^3 H-LTB4 and 0.1 ml LTB4 standard or LTB4 containing sample. The BUD-8 skin cell culture supernatants were used directly in the radioimmunoassay. Tubes were refrigerated overnight. A charcoal solution (0.5 ml of 0.5% charcoal Norit A) was added and each tube was centrifuged. The radioactivity in the supernatant was then counted in a liquid scintillation counter.

CCCCCCCOCCCO[C@@H]1[C@H]2OC(C)(C)O[C@H]2O[C@@H]1[C@H](O)CO [IIg]
concentrations with significantly decreased LTB4 levels: 1 to 100 µg/mL | LTB4 in supernatant (Table XIII) (1 ug/ml): 32.2 ± 1.9 pg LTB4 /1000 ul supernatant | calculated LTB4 produced/10^5 BUD-8 cells (1 ug/ml): 619 pg per 10^5 cells | LTB4 in supernatant (Table XIII) (10 ug/ml): 28.8 ± 1.4 pg LTB4 /1000 ul supernatant | calculated LTB4 produced/10^5 BUD-8 cells (10 ug/ml): 550 pg per 10^5 cells | LTB4 in supernatant (Table XIII) (25 ug/ml): 23.7 ± 0.5 pg LTB4 /1000 ul supernatant | calculated LTB4 produced/10^5 BUD-8 cells (25 ug/ml): 447 pg per 10^5 cells | LTB4 in supernatant (Table XIII) (100 ug/ml): 27.3 ± 2.6 pg LTB4 /1000 ul supernatant | calculated LTB4 produced/10^5 BUD-8 cells (100 ug/ml): 520 pg per 10^5 cells | LTB4 in supernatant (Table XIII) (300 ug/ml): 24.5 ± 2.8 pg LTB4 /1000 ul supernatant | LTB4 in supernatant (Table XIII) (750 ug/ml): 19.3 ± 1.9 pg LTB4 /1000 ul supernatant | inhibition at 1 µg/mL (Homo sapiens, Fibroblast, 18 h, 1 ug/ml, read-out: % Effect on LTB4 production): 17% | inhibition at 10 µg/mL (Homo sapiens, Fibroblast, 18 h, 10 ug/ml, read-out: % Effect on LTB4 production): 26% | inhibition at 25 µg/mL (Homo sapiens, Fibroblast, 18 h, 25 ug/ml, read-out: % Effect on LTB4 production): 39% | inhibition at 100 µg/mL (Homo sapiens, Fibroblast, 18 h, 100 ug/ml, read-out: % Effect on LTB4 production): 30% | inhibition at 300 µg/mL (Homo sapiens, Fibroblast, 18 h, 300 ug/ml, read-out: % Effect on LTB4 production): 37% | inhibition at 750 µg/mL (Homo sapiens, Fibroblast, 18 h, 750 ug/ml, read-out: % Effect on LTB4 production): 50%
